Reference: the NIST ThermoML archive (doi:10.1016/j.jct.2007.03.012)

Assay: xn = mol fraction of the nth substance listed
Details: Liquid, Bellows volumetry

CC(C)C [2-methylpropane] + CCC
mass density [kg/m3]
Details	360 K	380 K	400 K	420 K	440 K
5000 kPa, x2 = 0.2765	–	–	353.34	–	–
5000 kPa, x2 = 0.5052	–	390.11	–	–	–
10000 kPa, x2 = 0.2765	–	–	418.11	–	–
10000 kPa, x2 = 0.5052	–	433.73	396.98	353.95	–
10000 kPa, x2 = 0.7468	–	–	370.08	–	–
20000 kPa, x2 = 0.2765	–	–	464.84	–	418.57
20000 kPa, x2 = 0.5052	–	473.66	450.18	426.22	401.72
20000 kPa, x2 = 0.7468	481.36	–	432.58	–	381.56
30000 kPa, x2 = 0.2765	528.67	–	491.48	–	455.11
30000 kPa, x2 = 0.5052	517.29	498.04	478.86	459.76	441.26
30000 kPa, x2 = 0.7468	503.41	–	463.78	–	424.79
40000 kPa, x2 = 0.2765	543.99	–	510.96	–	479.61
40000 kPa, x2 = 0.5052	533.27	516.11	499.19	482.81	467.04
40000 kPa, x2 = 0.7468	520.23	–	485.32	–	452.26
50000 kPa, x2 = 0.2765	556.8	–	526.54	–	498.3
50000 kPa, x2 = 0.5052	546.45	530.72	515.41	500.59	486.62
50000 kPa, x2 = 0.7468	534.15	–	502.4	–	472.75
60000 kPa, x2 = 0.2765	567.78	–	539.61	–	513.76
60000 kPa, x2 = 0.5052	557.79	543.03	528.8	515.22	502.39
60000 kPa, x2 = 0.7468	545.73	–	516.38	–	489.17
70000 kPa, x2 = 0.2765	577.53	–	550.88	–	526.7
70000 kPa, x2 = 0.5052	567.64	553.8	540.38	527.71	515.83
70000 kPa, x2 = 0.7468	555.96	–	528.32	–	503.08
80000 kPa, x2 = 0.2765	586.26	–	560.85	–	538.18
80000 kPa, x2 = 0.5052	576.76	563.25	550.76	538.65	527.49
80000 kPa, x2 = 0.7468	565.01	–	538.83	–	515.14
90000 kPa, x2 = 0.2765	594.28	–	570.04	–	548.29
90000 kPa, x2 = 0.5052	584.67	572.07	559.81	548.42	537.76
90000 kPa, x2 = 0.7468	573.12	–	548.28	–	525.87
100000 kPa, x2 = 0.2765	601.6	–	578.09	–	557.44
100000 kPa, x2 = 0.5052	592.18	579.89	568.28	557.24	547.21
100000 kPa, x2 = 0.7468	580.81	–	557.19	–	535.38
120000 kPa, x2 = 0.2765	614.72	–	592.86	–	573.52
120000 kPa, x2 = 0.5052	605.4	593.88	583.05	572.89	563.63
120000 kPa, x2 = 0.7468	594.3	–	571.88	–	552.06
140000 kPa, x2 = 0.2765	626.08	–	605.66	–	587.48
140000 kPa, x2 = 0.5052	617.13	606.29	595.97	586.39	577.64
140000 kPa, x2 = 0.7468	606.32	–	584.98	–	566.38
160000 kPa, x2 = 0.2765	636.59	–	616.77	–	599.81
160000 kPa, x2 = 0.5052	627.68	617.17	607.43	598.41	590.03
160000 kPa, x2 = 0.7468	616.85	–	596.72	–	579.07
180000 kPa, x2 = 0.2765	645.76	–	626.93	–	610.74
180000 kPa, x2 = 0.5052	637.18	627.17	617.7	609.2	601.17
180000 kPa, x2 = 0.7468	626.62	–	606.99	–	590.35
200000 kPa, x2 = 0.2765	654.56	–	636.12	–	620.79
200000 kPa, x2 = 0.5052	645.89	636.19	627.01	619.16	611.27
200000 kPa, x2 = 0.7468	635.27	–	616.65	–	600.48
